Test [1] concerns microtubules (tubulin polymer). The experiment in a line: Radiolabeled ligand binding assays. The following applies: test agent 4 μM; radiolabel 4.0 μM; 37° C. How it is done:
The abilities of test agents to inhibit the binding of radiolabeled forms of the microtubule stabilizers paclitaxel, discodermolide and epothilone B from tubulin polymer were determined.
[^3H]Paclitaxel, [^3H]discodermolide and [^14C]epothilone B solutions were prepared as 125 μM stock solutions in 50% DMSO. Radiolabeled compound (final concentration, 4.0 μM) and test agents at final concentrations noted in the text and tables were mixed in 50 μL of 4:1 (v/v) 0.75 M aqueous MSG/DMSO and warmed to 37° C. Meanwhile, a reaction mixture containing 0.75 M MSG, 2.5 μM tubulin, and 25 μM ddGTP was prepared and incubated at 37° C. for 30 min to form microtubuless. A 200 μL aliquot of the microtubule mixture was added to the drug mixtures, and incubation continued for 30 min at 37° C. Reaction mixtures were centrifuged in an Eppendorf 5417C centrifuge at 14,000 rpm for 20 min at room temperature. Radiolabel in the supernatants (100 μL) was determined by scintillation spectrometry.

Test [2] concerns 1A9/Ptx10 (Phe270 −> Val) β-tubulin mutant cells. Description: Antiproliferative assay (GI50, MTS), paclitaxel-resistant clone. It is filed as cell-based, human. The following applies: for fold-resistance: 1A9/Ptx10 versus parental 1A9. On the procedure: (§1) Representative analogs were examined for their antiproliferative activities against human ovarian carcinoma 1A9 cells and their paclitaxel-resistant mutants, 1A9/Ptx10 and 1A9/Ptx22.
(§2) The effects of dictyostatin and its analogs on growth inhibition of parental (A549) and paclitaxel-resistant (1A9/Ptx10 and Ptx22) ovarian adenocarcinoma cell lines were evaluated following the antiproliferative assay protocol as described earlier (Minguez et al., 2003; Choy et al., 2003; Lazo et al., 2001). Cells were maintained in RPMI medium with 10% FBS in it, plated in tissue culture plates, and allowed to grow for 48-72 h before transferring them into 96-well plates. Cells were allowed to attach and grow for 48 h in 96-well plates after which they were treated with either control (DMSO) or drug in triplicate/quadruplicate. Cells were incubated with the compounds for 72 h. Cells were treated with MTS reagent before reading the plate in a Dynamax plate reader for determining the cell number. The fifty percent growth inhibition values (GI50 values) were calculated for the compounds against all the three cell lines.

Test [3] deals with 1A9/Ptx22 (Ala364 −> Thr) β-tubulin mutant cells. The test is described as above. It is filed as cell-based, human. The following applies: for fold-resistance: 1A9/Ptx22 versus parental 1A9. On the procedure: as §1, §2
The subject of another test is HeLa cells. The experiment in a line: Multiparameter fluorescence high information content analysis of cellular effects. It is filed as cell-based. The following applies: 24 h treatment; for Minimum detectable cellular change, Nuclear condensation: Hoechst 33342. More on the design: unit not given here. How it is done: HeLa cells were plated on collagen-coated 384-well microtiter plates, allowed to attach, then treated for 24 h with test agents. Test agent concentrations began at 1 μM, and two-fold dilutions were made to levels below 1 nM. After the treatment period, the cells were fixed with formalin and their chromatin stained with Hoechst 33342. Cells were permeabilized and treated with primary antibodies for α-tubulin and phosphohistone H3, and then with fluorophore-labeled secondary antibodies. The three fluorescent channels were then examined on an ArrayScan II, which gives quantitative pixel distribution and density information in each channel on a per cell basis.
HeLa cells growing at log phase were trypsinized and plated in 40 μL at a density of 7,000-8,000 cells per well in calf skin collagen I-coated 384-well plates (Falcon #3962; Fisher Scientific). Cells were exposed to test agents or 0.5% DMSO within 2-8 h of plating. Concentrated DMSO stock solutions of all test agents were diluted into solutions of HBSS medium plus 10% FBS and added to the microplate wells (10 μL per well), using an automated liquid handling system (Biomek® 2000; Beckman-Coulter, Inc.) to provide a serial 2-fold dilution of each test agent. The cells were incubated in the presence of test agents for 24 h. At the end of the incubation, the medium was removed and replaced with HBSS containing 4% formaldehyde and 10 μg/mL Hoechst 33342 (25 μL/well) to fix the cells and fluorescently label their chromatin. After incubation at room temperature for 20-30 min, the solution was removed from each well and replaced with HBSS (100 μL/well). Further reagent additions were made to the microplates using the Biomek 2000. After removing the HBSS from each well, cells were permeabilized for 5 min at room temperature with 0.5% (w/w) Triton X-100 in HBSS (10 μL/well). This step extracts a fraction of the soluble cellular components, including soluble tubulin. The wells were washed with HBSS (100 μL/well), followed by addition of a primary antibody solution containing mouse anti-α-tubulin (1:3000) and rabbit anti-phosphohistone H3 (1:500) in HBSS (10 μL/well). After 1 h at room temperature, the wells were washed with HBSS as above, followed by the addition of a secondary antibody solution containing fluorescein-5-isothiocyanate (FITC)-labeled donkey anti-mouse (1:300) and Cy3-labeled donkey anti-rabbit (1:300) antibodies diluted in HBSS (10 μL/well). After 1 h at room temperature, the wells were washed as above, and HBSS was added (100 μL/well). The plates were placed in an ArrayScan® HCS Reader with the Target Activation BioApplication Software coupled to Cellomics® Store and the vHCS™ Discovery Toolbox (Cellomics, Inc.) to analyze images. Briefly, the instrument was used to scan multiple optical fields, each with multiparameter fluorescence, within a subset of the wells of the 384-well microplate. The BioApplication software produced multiple numerical feature values, such as subcellular object intensities, shapes, and location for each cell within an optical field. […] A nuclear mask was generated from Hoechst 33342-stained nuclei, and object identification thresholds and shape parameters were set such that the algorithm identified over 90% of the nuclei in each field. Objects that touched each other or the edge of the image were excluded from the analysis. Tubulin mass was defined as the average green (FITC) pixel intensity in an area defined by the Hoechst-defined nuclear mask. This cytoplasmic area around the nucleus contains cytoskeletal components is a region from which sensitive measurements of cytoplasmic characteristics can be made.

Test [4] relates to human ovarian carcinoma cells (1A9). Description: Antiproliferative assay (GI50, MTS). The class given is cell-based. The following applies: for antiproliferative potency / GI50 values (in words): Table 1 (1A9 and mutant lines). How it is done:
as §1
as §2, with “The effects of dictyostatin and its analogs on growth inhibition of parental (A549) and paclitaxel-resistant (1A9/Ptx10 and Ptx22) ovarian adenocarcinoma cell lines were evaluated following the antiproliferative assay protocol as described earlier (Minguez et al., 2003; Choy et al., 2003; Lazo et al., 2001).” left out

A further test concerns T1, Bovine brain tubulin.
T1 construct: Bovine brain tubulin (10 μM) in 0.2 M MSG, 15 min at 20° C
The experiment in a line: Pelleting assay (tubulin assembly EC50 determination). The class given is biochemical. The following applies: tubulin 10 μM in 0.2 M MSG, 15 min at 20° C.; for EC50: concentration required to polymerize 50% of tubulin, read-out: EC50 (μM) ± SD (N). How it is done: Dictyostatin and representative analogs were evaluated in a quantitative assay for their ability to promote tubulin polymerization. […] When the percent polymer formed was determined in the reactions, a comparison of the activities of all the analogs could be made.
The assay was performed under three different reaction conditions following the procedure reported earlier (Gapud et al., 2004). Reaction condition 1 included 0.2 M monosodium glutamate (MSG), 10 μM tubulin, 5% DMSO and varying concentrations of test agents. Reaction condition 2 included 0.8 M MSG, 400 μM GTP, 10 μM tubulin, 5% DMSO, and varying concentrations of test agents. Reaction condition 3 had 0.6 M MSG, 200 μM GTP, and 10 μM tubulin, and 5% DMSO, and varying concentrations of the test agents. The experimental protocol for all the three reaction conditions was the following. The reaction mixtures were incubated at room temperature (20-22° C.) for 15 min and spun for 10 min at 14,000 rpm in an Eppendorf microtube centrifuge. Aliquots of the supernatants were removed and assayed for protein content by the method of Lowry.

[5] abbreviates: Homo sapiens, 1A9/ptx-10, 72 h, read-out: GI50 ± S.D., 1A9/Ptx10 (Phe270 −> Val), 72 h incubation.
Where [6] appears, read: Homo sapiens, 1A9/ptx-22, 72 h, read-out: GI50 ± S.D., 1A9/Ptx22 (Ala364 −> Thr), 72 h incubation.
Setting [7] is: Homo sapiens, Ovarian carcinoma cell, 72 h, read-out: GI50 ± S.D., 1A9 parental cells, 72 h incubation.

Molecules are shown by their SMILES. Read-outs that look alike come from different tables or passages of the source.

Six molecules from US7321046B2, “Analogs of dictyostatin, intermediates therefor and methods of synthesis thereof” (University of Pittsburgh, priority 2002, dated 2008) can be followed below.

Broadly, the EC50 is the concentration needed to bring the measured effect to its halfway point.

For `C/C(=C\c1csc(C)n1)[C@@H]1C[C@@H]2O[C@]2(C)CCC[C@H](C)[C@H](O)[C@@H](C)C(=O)C(C)(C)[C@@H](O)CC(=O)O1` [epothilone B], the “Percent inhibition of radiolabel from microtubules, [3H]Discodermolide” value (“Percent inhibition … [3H]Discodermolide” below) in test [1] is given as 14 ± 3%.

For the molecule `C=CC=CC(C)C1OC(=O)C=CC=CC(C)C(O)CC(O)C=CC(C)C(O)C(C)CC(C)CCC(O)C1C` [Compound 108, 8(S),10(S),14(R),20(S)-Tetrahydroxy-7(S),13(S),15(R),17(S),21(S)-pentamethyl-22(S)-(1(S)-methyl-penta-2,4-dienyl)oxacyclodocosa-3(Z),5(E),11(Z)-trien-2-one], in test [2], the fold-resistance came to 0.9 fold. Besides, the GI50 in test [2] (setting [5]) is 26000 nM. For the same molecule, in test [3], the fold-resistance came out at 1.1 fold. In test [3] (setting [6]), the GI50 came to 30000 ± 1000 nM. For the same molecule, in the test with HeLa cells, the “Minimum detectable cellular change, Phosphohistone H3” value is listed as >5000 (4); the “Minimum detectable cellular change, Tubulin polymer intensity” value is on record as >5000 (4); the “Minimum detectable cellular change, Nuclear condensation” value was >5000 (4). In addition, the GI50 in test [4] (setting [7]) was found to be 28000 ± 1000 nM. Moreover, the “antiproliferative potency / GI50 values (in words)” value in test [4] is recorded as “mid micromolar GI50 values”. Also, in the test with Bovine brain tubulin, the “% Tubulin polymerized by 50 μM test agent” value is recorded as 5 ± 1% and the EC50 is over 50 µM. The “Percent inhibition of radiolabel from microtubules, [3H]Paclitaxel” value (“Percent inhibition … [3H]Paclitaxel” for short) in test [1] was determined as 0 ± 1%.

Take `CC(=O)O[C@@]12CO[C@@H]1C[C@H](O)[C@@]1(C)C(=O)[C@H](O)C3=C(C)[C@@H](OC(=O)[C@H](O)[C@@H](NC(=O)OC(C)(C)C)c4ccccc4)C[C@@](O)([C@@H](OC(=O)c4ccccc4)[C@H]21)C3(C)C` [docetaxel]: in test [1], the “Percent inhibition … [3H]Discodermolide” value is given as 8 ± 6 (3) %; the “Percent inhibition … [3H]Paclitaxel” value is reported as 63 ± 8 (4) %; the “Percent inhibition of radiolabel from microtubules, [14C]Epothilone B” value is reported as 36 ± 1 (3) %.

For `C/C(=C\c1csc(C)n1)[C@@H]1C[C@@H]2O[C@@H]2CCC[C@H](C)[C@H](O)[C@@H](C)C(=O)C(C)(C)[C@@H](O)CC(=O)O1` [epothilone A], in test [1], the “Percent inhibition … [3H]Discodermolide” value is listed as 6 ± 6 (3) %; the “Percent inhibition … [3H]Paclitaxel” value is 53 ± 4 (4) %; the “Percent inhibition of radiolabel from microtubules, [14C]Epothilone B” value is on record as 25 ± 3 (3) %.

For the molecule `C=CC=CC(C)C1OC(=O)C=CC=CC(C)C(O)CC(O)C=CC(C)C(O)C(C)CC(C)CCC(O)C1C` [Compound 100, 8(S),10(S),14(R),20(R)-Tetrahydroxy-7(S),13(S),15(R),17(S),21 (S)-pentamethyl-22(S)-(1(S)-methyl-penta-2,4-dienyl)-oxa-cyclodocosa-3(E),5(E),11(Z)-trien-2-one], in test [2], the fold-resistance amounted to 2.5 fold. Also, the GI50 in test [2] (read-out: GI50 ± S.D., 1A9/Ptx10 (Phe270 −> Val), 72 h incubation) stood at 780 ± 200 nM. Moreover, in test [3], the fold-resistance is 2.5 fold. Also, the GI50 in test [3] (read-out: GI50 ± S.D., 1A9/Ptx22 (Ala364 −> Thr), 72 h incubation) is 790 ± 560 nM. In the test on HeLa cells, the “Minimum detectable cellular change, Phosphohistone H3” value was >5000 (4); the “Minimum detectable cellular change, Tubulin polymer intensity” value is reported as >5000 (4); the “Minimum detectable cellular change, Nuclear condensation” value is on record as >5000 (4). In addition, in test [4], the “antiproliferative potency / GI50 values (in words)” value is “high nanomolar GI50 values”. Also, the GI50 in test [4] (read-out: GI50 ± S.D., 1A9 parental cells, 72 h incubation) is 310 ± 40 nM. Besides, in the test with Bovine brain tubulin, the “% Tubulin polymerized by 50 μM test agent” value is recorded as 1 ± 1% and the EC50 is over 50 µM. The “Percent inhibition … [3H]Paclitaxel” value in test [1] is 0 ± 1%.

On to `C=C/C=C\[C@H](C)[C@H](O)[C@@H](C)[C@H](CC[C@H](C)C[C@@H](C)[C@@H](O[Si](C)(C)C(C)(C)C)[C@@H](C)/C=C\[C@H](C[C@H](O[Si](C)(C)C(C)(C)C)[C@@H](C)/C=C/C=C\C(=O)O)O[Si](C)(C)C(C)(C)C)O[Si](C)(C)C(C)(C)C` [Compound 107, (2Z,4E,6S,7S,9S,10Z,12S,13R,14R,16S,19S,20R,21S,22S,23Z)-7,9,13,19-tetrakis(tert-Butyldimethylsilyloxy)-21-hydroxy-6,12,14,16,20,22-hexamethylhexacosa-2,4,10,23,25-pentaenoic acid], for which the GI50 in test [2] (setting [5]), in test [3] (setting [6]) and in test [4] (setting [7]) was over 500 nM each time.
